Reference: the NIST ThermoML archive (doi:10.1016/j.fluid.2018.11.012)
± gives the expanded uncertainty stated by the source.

Columns and labels:
[1] = 298.15 K; 101.33 kPa; Liquid; Vibrating tube method
[2] = refractive index (Na D-line) (dimensionless); settings: 298.15 K; 101.33 kPa; Liquid; Standard Abbe refractometry

Structure (SMILES)	mass density [1]	refractive index [2]
CC1CCC(=O)O1 (centres undefined) [γ-valerolactone]	1049.25 ± 0.3 kg/m3	1.4312 ± 0.0008
CCCCCCCCCCCCCC [tetradecane]	759.38 ± 0.26 kg/m3	1.4269 ± 0.0008
